In ChEMBL document CHEMBL1143641, “Structure-based design of 7-carbamate analogs of geldanamycin” (Bioorg Med Chem Lett, 2005):

Columns and labels:
[1] = molecular target: Heat shock protein HSP 90-alpha (Homo sapiens, UniProt P07900); test: Binding affinity for human heat shock protein 90 in scintillation proximity assay
SK-BR-3 = test: Cytotoxicity against SKBr3 cells; type: functional, cell-based; conditions: Homo sapiens

With `CO[C@H]1/C=C\C=C(/C)C(=O)NC2=CC(=O)C(NCCN(C)C)=C(C[C@@H](C)C[C@H](OC)[C@H](O)[C@@H](C)/C=C(\C)[C@@H]1OC(=O)c1c[nH]cn1)C2=O` the Kd [1] was > 100 µM and the IC50 (SK-BR-3) was 1.2 µM.

`CO[C@H]1/C=C\C=C(/C)C(=O)NC2=CC(=O)C(N3CCC3)=C(C[C@@H](C)C[C@H](OC)[C@H](O)[C@@H](C)/C=C(\C)[C@@H]1OC(=O)NN)C2=O` was tested, and the Kd [1] was > 100 µM and the IC50 (SK-BR-3) was 0.53 µM.

In the case of `CO[C@H]1/C=C\C=C(/C)C(=O)NC2=CC(=O)C(NCCN(C)C)=C(C[C@@H](C)C[C@H](OC)[C@H](O)[C@@H](C)/C=C(\C)[C@@H]1OC(=O)NCCO)C2=O`, the Kd [1] is reported as > 100 µM and the IC50 (SK-BR-3) is reported as 0.39 µM.

`CNC(=O)O[C@H]1/C(C)=C/[C@H](C)[C@@H](O)[C@@H](OC)C[C@H](C)CC2=C(NCCN(C)C)C(=O)C=C(NC(=O)/C(C)=C/C=C\[C@@H]1OC)C2=O` was tested, and the Kd [1] was > 100 µM and the IC50 (SK-BR-3) was 0.42 µM.

For `CO[C@H]1/C=C\C=C(/C)C(=O)NC2=CC(=O)C(NCCF)=C(C[C@@H](C)C[C@H](OC)[C@H](O)[C@@H](C)/C=C(\C)[C@@H]1OC(=O)NN)C2=O`, the Kd [1] was > 100 µM and the IC50 (SK-BR-3) was 2.1 µM.

Compound `CO[C@H]1/C=C\C=C(/C)C(=O)NC2=CC(=O)C(N)=C(C[C@@H](C)C[C@H](OC)[C@H](O)[C@@H](C)/C=C(\C)[C@@H]1OC(N)=O)C2=O` has a Kd [1] of 0.1 µM.

For `CONC(=O)O[C@H]1/C(C)=C/[C@H](C)[C@@H](O)[C@@H](OC)C[C@H](C)CC2=C(NCCN(C)C)C(=O)C=C(NC(=O)/C(C)=C/C=C\[C@@H]1OC)C2=O`, the Kd [1] was > 100 µM and the IC50 (SK-BR-3) was 0.49 µM.

`CO[C@H]1C[C@H](C)CC2=C(NCCN(C)C)C(=O)C=C(NC(=O)/C(C)=C/C=C3/NC(=O)O[C@@H](/C(C)=C/[C@H](C)[C@H]1O)[C@H]3OC)C2=O` was tested, and the Kd [1] was > 100 µM and the IC50 (SK-BR-3) was 4.5 µM.

In the case of `CO[C@H]1/C=C\C=C(/C)C(=O)NC2=CC(=O)C(NCCN(C)C)=C(C[C@@H](C)C[C@H](OC)[C@H](O)[C@@H](C)/C=C(\C)[C@@H]1OC(=O)NCC(N)=O)C2=O`, the Kd [1] is reported as > 100 µM and the IC50 (SK-BR-3) is reported as 1.4 µM.

In the case of `CO[C@H]1/C=C\C=C(/C)C(=O)NC2=CC(=O)C(N)=C(C[C@@H](C)C[C@H](OC)[C@H](O)[C@@H](C)/C=C(\C)[C@@H]1OC(=O)c1ccc[nH]1)C2=O`, the Kd [1] is reported as > 100 µM and the IC50 (SK-BR-3) is reported as 1.9 µM.

`CO[C@H]1/C=C\C=C(/C)C(=O)NC2=CC(=O)C(NCCN(C)C)=C(C[C@@H](C)C[C@H](OC)[C@H](O)[C@@H](C)/C=C(\C)[C@@H]1OC(=O)NCCN(C)C)C2=O` was tested, and the Kd [1] was > 100 µM and the IC50 (SK-BR-3) was 0.46 µM.

`CO[C@H]1/C=C\C=C(/C)C(=O)NC2=CC(=O)C(NCCN(C)C)=C(C[C@@H](C)C[C@H](OC)[C@H](O)[C@@H](C)/C=C(\C)[C@@H]1OC(=O)NO)C2=O` showed a Kd [1] of 18 µM and an IC50 (SK-BR-3) of 0.22 µM.

For `CO[C@H]1/C=C\C=C(/C)C(=O)NC2=CC(=O)C(NCCN(C)C)=C(C[C@@H](C)C[C@H](OC)[C@H](O)[C@@H](C)/C=C(\C)[C@@H]1OC(=O)c1ccc[nH]1)C2=O`, the Kd [1] was > 100 µM and the IC50 (SK-BR-3) was 0.41 µM.

For `CO[C@H]1/C=C\C=C(/C)C(=O)NC2=CC(=O)C(NCCN(C)C)=C(C[C@@H](C)C[C@H](OC)[C@H](O)[C@@H](C)/C=C(\C)[C@@H]1OC(=O)NN)C2=O`, the Kd [1] was > 100 µM and the IC50 (SK-BR-3) was 0.14 µM.

`CO[C@H]1/C=C\C=C(/C)C(=O)NC2=CC(=O)C(NCCF)=C(C[C@@H](C)C[C@H](OC)[C@H](O)[C@@H](C)/C=C(\C)[C@@H]1OC(N)=O)C2=O` gave a Kd [1] of 0.8 µM.

With `CO[C@H]1/C=C\C=C(/C)C(=O)NC2=CC(=O)C(NCCN(C)C)=C(C[C@@H](C)C[C@H](OC)[C@H](O)[C@@H](C)/C=C(\C)[C@@H]1OC(=O)N(C)N)C2=O` the Kd [1] was > 100 µM and the IC50 (SK-BR-3) was 2.5 µM.

With `CO[C@H]1/C=C\C=C(/C)C(=O)NC2=CC(=O)C(NCCF)=C(C[C@@H](C)C[C@H](OC)[C@H](O)[C@@H](C)/C=C(\C)[C@@H]1OC(=O)NO)C2=O` the Kd [1] was > 100 µM and the IC50 (SK-BR-3) was 1.5 µM.

With `CO[C@H]1/C=C\C=C(/C)C(=O)NC2=CC(=O)C(N3CCC3)=C(C[C@@H](C)C[C@H](OC)[C@H](O)[C@@H](C)/C=C(\C)[C@@H]1OC(N)=O)C2=O` the Kd [1] was 1.4 µM.

For `CO[C@H]1/C=C\C=C(/C)C(=O)NC2=CC(=O)C(N3CCC3)=C(C[C@@H](C)C[C@H](OC)[C@H](O)[C@@H](C)/C=C(\C)[C@@H]1OC(=O)NO)C2=O`, the Kd [1] was > 100 µM and the IC50 (SK-BR-3) was 0.64 µM.
